Earlier results as cited in patent publication US20040023937A1, “Anti-cancer formulation” (Greystone Medical Group, Inc., priority 2002, published 2004).

Experiments:
[1] = tested on: human fibrosarcoma cells; details: reported
[2] = tested on: MMP-2; details: second of two gelatin degrading MMP's; reported
[3] = tested on: MMP-9; details: gelatin degrading matrix metalloproteinase; mechanism reported to be thought to involve it

C[C@H]1[C@H](C)CC[C@]2(C(=O)O)CC[C@]3(C)C(=CC[C@@H]4[C@@]5(C)CC[C@H](O)C(C)(C)[C@@H]5CC[C@]43C)[C@H]12 [Ursolic acid]
anti-invasive activity [1]: anti-invasive activity | effect on MMP-2 [2]: no effect | down-regulation of MMP-9 [3]: down-regulation
